The data set deals with CCRIS mutagenicity, Ames/micronucleus/aberration tests. Briefly: CCRIS mutagenicity studies.
Where [1] appears, read: Test System: AMES SALMONELLA TYPHIMURIUM, Strain/Indicator: TA100, Metabolic Activation: NONE, Method: PREINCUBATION
The mark [2] stands for this setting: Test System: AMES SALMONELLA TYPHIMURIUM, Strain/Indicator: TA100, Metabolic Activation: NONE, Method: STANDARD PLATE.

Calls of active or inactive are those of the source. No rule for the calls is given here.

Turning to `CC1=CC(=O)c2c(O)cccc2C1=O`, the mutagenic call runs as follows: (Test System: AMES SALMONELLA TYPHIMURIUM, Strain/Indicator: TA97, Metabolic Activation: NONE, Method: PREINCUBATION) “active; positive”; (Test System: AMES SALMONELLA TYPHIMURIUM, Strain/Indicator: TA97, Metabolic Activation: RAT, LIVER, S-9, PHENOBARBITAL AND 5,6-BENZOFLAVONE, Method: PREINCUBATION) “active; positive”; (Test System: AMES SALMONELLA TYPHIMURIUM, Strain/Indicator: TA98, Metabolic Activation: HAMSTER LIVER S-9, AROCLOR 1254, Method: STANDARD PLATE) “inactive; negative”; (Test System: AMES SALMONELLA TYPHIMURIUM, Strain/Indicator: TA98, Metabolic Activation: NONE, Method: PREINCUBATION) “inactive; negative”; (Test System: AMES SALMONELLA TYPHIMURIUM, Strain/Indicator: TA98, Metabolic Activation: NONE, Method: STANDARD PLATE) “inactive; negative”; (Test System: AMES SALMONELLA TYPHIMURIUM, Strain/Indicator: TA98, Metabolic Activation: RAT LIVER S-9, AROCLOR 1254, Method: STANDARD PLATE) “inactive; negative”. In addition, the mutagenic call runs as follows: (Test System: AMES SALMONELLA TYPHIMURIUM, Strain/Indicator: TA98, Metabolic Activation: RAT, LIVER, S-9, PHENOBARBITAL AND 5,6-BENZOFLAVONE, Method: PREINCUBATION) “inactive; negative”; (Test System: AMES SALMONELLA TYPHIMURIUM, Strain/Indicator: TA100, Metabolic Activation: HAMSTER LIVER S-9, AROCLOR 1254, Method: STANDARD PLATE) “inactive; negative”; under setting [1], “inactive; negative”; under setting [2], “inactive; negative”; (Test System: AMES SALMONELLA TYPHIMURIUM, Strain/Indicator: TA100, Metabolic Activation: RAT LIVER S-9, AROCLOR 1254, Method: STANDARD PLATE) “inactive; negative”; (Test System: AMES SALMONELLA TYPHIMURIUM, Strain/Indicator: TA100, Metabolic Activation: RAT, LIVER, S-9, PHENOBARBITAL AND 5,6-BENZOFLAVONE, Method: PREINCUBATION) “active; positive”. For the same compound, the mutagenic call was “inactive; negative” (Test System: AMES SALMONELLA TYPHIMURIUM, Strain/Indicator: TA102, Metabolic Activation: NONE, Method: PREINCUBATION); “inactive; negative” (Test System: AMES SALMONELLA TYPHIMURIUM, Strain/Indicator: TA102, Metabolic Activation: NONE, Method: STANDARD PLATE); “inactive; negative” (Test System: AMES SALMONELLA TYPHIMURIUM, Strain/Indicator: TA102, Metabolic Activation: RAT, LIVER, S-9, PHENOBARBITAL AND 5,6-BENZOFLAVONE, Method: PREINCUBATION); “active; positive” (Test System: AMES SALMONELLA TYPHIMURIUM, Strain/Indicator: TA104, Metabolic Activation: NONE, Method: PREINCUBATION); “active; positive” (Test System: AMES SALMONELLA TYPHIMURIUM, Strain/Indicator: TA104, Metabolic Activation: RAT, LIVER, S-9, PHENOBARBITAL AND 5,6-BENZOFLAVONE, Method: PREINCUBATION); “inactive; negative” (Test System: AMES SALMONELLA TYPHIMURIUM, Strain/Indicator: TA1535, Metabolic Activation: HAMSTER LIVER S-9, AROCLOR 1254, Method: STANDARD PLATE). The mutagenic call was “inactive; negative” (Test System: AMES SALMONELLA TYPHIMURIUM, Strain/Indicator: TA1535, Metabolic Activation: NONE, Method: PREINCUBATION); “inactive; negative” (Test System: AMES SALMONELLA TYPHIMURIUM, Strain/Indicator: TA1535, Metabolic Activation: NONE, Method: STANDARD PLATE); “inactive; negative” (Test System: AMES SALMONELLA TYPHIMURIUM, Strain/Indicator: TA1535, Metabolic Activation: RAT LIVER S-9, AROCLOR 1254, Method: STANDARD PLATE); “inactive; negative” (Test System: AMES SALMONELLA TYPHIMURIUM, Strain/Indicator: TA1535, Metabolic Activation: RAT, LIVER, S-9, PHENOBARBITAL AND 5,6-BENZOFLAVONE, Method: PREINCUBATION); “inactive; negative” (Test System: AMES SALMONELLA TYPHIMURIUM, Strain/Indicator: TA1537, Metabolic Activation: HAMSTER LIVER S-9, AROCLOR 1254, Method: STANDARD PLATE); “inactive; negative” (Test System: AMES SALMONELLA TYPHIMURIUM, Strain/Indicator: TA1537, Metabolic Activation: NONE, Method: PREINCUBATION). Moreover, the mutagenic call (Test System: AMES SALMONELLA TYPHIMURIUM, Strain/Indicator: TA1537, Metabolic Activation: NONE, Method: STANDARD PLATE) was “inactive; negative”; the mutagenic call (Test System: AMES SALMONELLA TYPHIMURIUM, Strain/Indicator: TA1537, Metabolic Activation: RAT LIVER S-9, AROCLOR 1254, Method: STANDARD PLATE) was “inactive; negative”; the mutagenic call (Test System: AMES SALMONELLA TYPHIMURIUM, Strain/Indicator: TA1537, Metabolic Activation: RAT, LIVER, S-9, PHENOBARBITAL AND 5,6-BENZOFLAVONE, Method: PREINCUBATION) is “active; positive”; the mutagenic call (Test System: AMES SALMONELLA TYPHIMURIUM, Strain/Indicator: TA1538, Metabolic Activation: NONE, Method: PREINCUBATION) was “inactive; negative”; the mutagenic call (Test System: AMES SALMONELLA TYPHIMURIUM, Strain/Indicator: TA1538, Metabolic Activation: RAT, LIVER, S-9, PHENOBARBITAL AND 5,6-BENZOFLAVONE, Method: PREINCUBATION) was “inactive; negative”; the mutagenic call (Test System: AMES SALMONELLA TYPHIMURIUM, Strain/Indicator: TA2637, Metabolic Activation: NONE, Method: PREINCUBATION) was “active; positive”. Moreover, the mutagenic call is “active; positive” (Test System: AMES SALMONELLA TYPHIMURIUM, Strain/Indicator: TA2637, Metabolic Activation: RAT, LIVER, S-9, PHENOBARBITAL AND 5,6-BENZOFLAVONE, Method: PREINCUBATION); “inactive; negative” (Test System: AMES SALMONELLA TYPHIMURIUM, Strain/Indicator: TA2638, Metabolic Activation: NONE, Method: STANDARD PLATE); “inactive; negative” (Test System: Ames Salmonella typhimurium, Strain/Indicator: TA102, Metabolic Activation: None, Method: Preincubation); “inactive; negative” (Test System: Ames Salmonella typhimurium, Strain/Indicator: TA102, Metabolic Activation: Rat, Liver, S-9, Aroclor 1254 in 0.154 M KCl, Method: Preincubation); “inactive; negative” (Test System: E. COLI, Strain/Indicator: WP2 (PKM101), Metabolic Activation: NONE, Method: STANDARD PLATE); “inactive; negative” (Test System: E. COLI, Strain/Indicator: WP2 UVRA (PKM101), Metabolic Activation: NONE, Method: STANDARD PLATE). Moreover, the mutagenic call is, setting by setting: (Test System: MOUSE LYMPHOMA, Strain/Indicator: L5178Y (TK+/TK-), Metabolic Activation: NONE, Method: SUSPENSION/PLATE) “inactive; positive. reevaluation of results: negative”; (Test System: MOUSE LYMPHOMA, Strain/Indicator: L5178Y (TK+/TK-), Metabolic Activation: RAT, LIVER, S-9, AROCLOR 1254, Method: SUSPENSION/PLATE) “active; positive. reevaluation of results: equivocal”.
Regarding `O=c1cc[nH]c2ccccc12`, the mutagenic call by setting is: under setting [2], “inactive; negative”; (Test System: AMES SALMONELLA TYPHIMURIUM, Strain/Indicator: TA100, Metabolic Activation: RAT, LIVER, S-9, AROCLOR 1254 (10% OR 20%), Method: STANDARD PLATE) “inactive; negative”.
On to `O=C(O)c1ccc([N+](=O)[O-])cc1[N+](=O)[O-]`, for which the mutagenic call is, setting by setting: (End Point: In vitro chromosomal aberrations, Test System: V79 Chinese hamster fibroblasts, Metabolic Activation: None) “active; positive (structural changes)”; (End Point: In vitro micronucleus, Test System: HepG2 human hepatoma cells, Metabolic Activation: None) “active; positive”; (Test System: AMES SALMONELLA TYPHIMURIUM, Strain/Indicator: TA98, Metabolic Activation: RAT, LIVER, S-9, AROCLOR, Method: PREINCUBATION) “active; positive”; (Test System: AMES SALMONELLA TYPHIMURIUM, Strain/Indicator: TA98, Metabolic Activation: RAT, LIVER, S-9, KANECHLOR 500, Method: PREINCUBATION) “inactive; negative”; (Test System: AMES SALMONELLA TYPHIMURIUM, Strain/Indicator: TA100, Metabolic Activation: RAT, LIVER, S-9, KANECHLOR 500, Method: PREINCUBATION) “inactive; negative”; (Test System: Ames Salmonella typhimurium, Strain/Indicator: TA98, Metabolic Activation: None, Method: Standard plate) “active; positive”. The mutagenic call runs as follows: (Test System: Ames Salmonella typhimurium, Strain/Indicator: TA98, Metabolic Activation: Rat, Liver, S-9, Method: Standard plate) “active; positive”; (Test System: Ames Salmonella typhimurium, Strain/Indicator: TA98NR, Metabolic Activation: None, Method: Standard plate) “active; positive, ta98nr is the nitroreductase-deficient derivative of ta98”; (Test System: Ames Salmonella typhimurium, Strain/Indicator: TA100, Metabolic Activation: None, Method: Standard plate) “inactive; negative”; (Test System: Ames Salmonella typhimurium, Strain/Indicator: TA100, Metabolic Activation: Rat, Liver, S-9, Method: Standard plate) “inactive; negative”.
With `OCCS`, the mutagenic call under setting [1] was “inactive; negative”.
